For orientation: IC50 means the concentration that inhibits the measured activity by half. A word on the half-life: it is the time needed for the level to fall by half in the phase considered. The term fraction unbound denotes the share of the substance not bound to proteins or other matrix. For orientation: AUC(0-inf) means total exposure, with the tail of the curve extrapolated. Read a low AUC(0-inf) as low exposure. One may read the clearance as the volume of plasma or blood freed of the substance per unit of time. A high value points to efficient removal.

Structures are written as SMILES. Calls of active or inactive are those of the source.

From ChEMBL document CHEMBL5370608, “Selective and Bioavailable HDAC6 2-(Difluoromethyl)-1,3,4-oxadiazole Substrate Inhibitors and Modeling of Their Bioactivation Mechanism” (J Med Chem, 2023) come the findings set out here.

Data set [1] concerns the target T1, Polyamine deacetylase HDAC10 (Homo sapiens, UniProt Q969S8).
T1 sequence (Q969S8 whole entry): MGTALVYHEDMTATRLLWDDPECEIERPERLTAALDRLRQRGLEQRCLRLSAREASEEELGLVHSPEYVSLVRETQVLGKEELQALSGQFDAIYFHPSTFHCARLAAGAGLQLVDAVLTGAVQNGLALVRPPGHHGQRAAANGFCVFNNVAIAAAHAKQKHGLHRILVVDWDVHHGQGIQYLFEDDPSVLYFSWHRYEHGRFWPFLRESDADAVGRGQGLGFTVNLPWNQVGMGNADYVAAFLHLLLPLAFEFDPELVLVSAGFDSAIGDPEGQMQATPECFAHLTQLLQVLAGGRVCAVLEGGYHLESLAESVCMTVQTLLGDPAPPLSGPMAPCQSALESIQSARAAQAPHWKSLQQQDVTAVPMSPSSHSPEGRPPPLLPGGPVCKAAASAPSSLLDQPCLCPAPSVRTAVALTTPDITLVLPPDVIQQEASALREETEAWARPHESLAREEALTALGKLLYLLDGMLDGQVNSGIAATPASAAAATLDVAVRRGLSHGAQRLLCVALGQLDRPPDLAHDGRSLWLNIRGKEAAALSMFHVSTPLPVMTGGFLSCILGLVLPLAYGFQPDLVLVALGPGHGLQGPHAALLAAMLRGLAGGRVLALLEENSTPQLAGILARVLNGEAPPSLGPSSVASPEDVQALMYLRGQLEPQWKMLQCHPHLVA
Put plainly: Inhibition of human recombinant HDAC10 incubated for 45 mins by fluorimetry analysis.

Data set [2] in a line: Chemical stability of compound in sodium carbonate buffer at pH 10 assessed as half life by UPLC analysis. The class given is physicochemical.
A short description of data set [3]: Chemical stability of compound in sodium phosphate buffer at pH 7.4 assessed as half life by UPLC analysis. The data set is classed as physicochemical.
Data set [4] can be described thus: Chemical stability of compound in HCL solution at pH 1 assessed as half life by UPLC analysis. The class given is physicochemical.
Data set [5] can be described thus: Plasma protein binding in human assessed as unbound fraction. The data set is classed as ADME, cell-free.
Data set [6] has as its target T2, Protein deacetylase HDAC6 (Mus musculus, UniProt Q9Z2V5).
T2 sequence (Q9Z2V5 whole entry): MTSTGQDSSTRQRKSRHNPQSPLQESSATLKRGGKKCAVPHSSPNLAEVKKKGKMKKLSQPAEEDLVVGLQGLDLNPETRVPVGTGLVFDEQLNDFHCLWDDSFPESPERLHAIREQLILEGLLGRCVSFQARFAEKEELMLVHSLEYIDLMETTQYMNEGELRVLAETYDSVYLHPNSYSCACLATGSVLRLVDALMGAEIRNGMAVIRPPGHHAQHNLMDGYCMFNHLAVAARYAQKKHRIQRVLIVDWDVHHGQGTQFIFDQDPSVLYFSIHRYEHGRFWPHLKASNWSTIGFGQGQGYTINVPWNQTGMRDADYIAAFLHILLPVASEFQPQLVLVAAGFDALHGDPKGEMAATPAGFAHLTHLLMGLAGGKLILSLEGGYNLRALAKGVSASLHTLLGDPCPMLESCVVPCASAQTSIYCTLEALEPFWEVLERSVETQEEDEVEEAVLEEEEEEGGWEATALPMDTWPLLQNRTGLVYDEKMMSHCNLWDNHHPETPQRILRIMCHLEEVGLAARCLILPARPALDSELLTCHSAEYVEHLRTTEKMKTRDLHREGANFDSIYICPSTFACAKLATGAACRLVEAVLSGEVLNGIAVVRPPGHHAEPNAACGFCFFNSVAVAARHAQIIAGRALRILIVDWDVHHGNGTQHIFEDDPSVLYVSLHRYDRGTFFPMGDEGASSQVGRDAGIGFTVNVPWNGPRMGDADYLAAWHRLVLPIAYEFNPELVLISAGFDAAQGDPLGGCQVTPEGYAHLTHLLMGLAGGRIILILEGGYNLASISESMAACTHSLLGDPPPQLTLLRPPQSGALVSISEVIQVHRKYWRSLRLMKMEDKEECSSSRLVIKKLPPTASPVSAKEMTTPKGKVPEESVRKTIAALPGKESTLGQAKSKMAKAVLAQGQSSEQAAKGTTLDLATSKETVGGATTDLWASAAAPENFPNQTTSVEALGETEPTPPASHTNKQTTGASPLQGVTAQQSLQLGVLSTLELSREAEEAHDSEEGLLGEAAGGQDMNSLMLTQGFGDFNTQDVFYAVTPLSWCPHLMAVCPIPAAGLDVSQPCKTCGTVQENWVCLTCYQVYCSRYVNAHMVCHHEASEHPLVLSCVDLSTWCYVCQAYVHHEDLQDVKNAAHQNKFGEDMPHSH
Description: Inhibition of HDAC6 in mouse LA-4 cells assessed as deacetylation of acetylated alpha-tubulin level incubated for 24 hrs by Western blot analysis. The data set is classed as cell-based.

Data set [7] is described as follows: AUC (0 to infinity) in C57/BI mouse at 1 mg/kg, po measured upto 24 hrs by LC-MS/MS analysis. The data set is classed as ADME, organism-based. Further details: time < 24 hrs, dose 1 mg/kg, route po. Particulars: in vivo.
The nature of data set [8]: Oral bioavailability in C57/BI mouse at 1 mg/kg measured upto 24 hrs by LC-MS/MS analysis. The class given is ADME, organism-based. Particulars: in vivo.
A short description of data set [9]: Metabolic stability in mouse hepatocytes assessed as intrinsic clearance at 1 uM measured per 10^6 cells incubated at 2 to 60 mins by LC-MS/MS analysis. The class given is ADME, cell-based, Hepatocyte. To be noted: time 2-60 min, read-out: CLH.
Data set [10] is described as follows: Metabolic stability in human hepatocytes assessed as intrinsic clearance at 1 uM measured per 10^6 cells incubated at 2 to 60 mins by LC-MS/MS analysis. The class given is ADME, cell-based, Hepatocyte. Particulars: time 2-60 min, read-out: CLH.
The target in data set [11] is cAMP and cAMP-inhibited cGMP 3',5'-cyclic phosphodiesterase 10A (Homo sapiens) (UniProt Q9Y233). Description: Inhibition of PDE10A2 (unknown origin) at 91 uM relative to control.
A short description of data set [12]: Clearance in Wistar Han rat at 0.5 mg/kg, iv measured upto 24 hrs by LC-MS/MS analysis. The data set is classed as ADME, organism-based. To be noted: in vivo.
Data set [13] can be described thus: Half life in C57/BI mouse at 0.5 mg/kg, iv measured upto 24 hrs by LC-MS/MS analysis. The data set is classed as ADME, organism-based. Particulars: in vivo.
Data set [14] in a line: Volume of distribution at steady state in Wistar Han rat at 1 mg/kg, po or 0.5 mg/kg, iv measured upto 24 hrs by LC-MS/MS analysis. To be noted: in vivo. The data set is classed as ADME, organism-based.
Data set [15] in a line: Clearance in C57/BI mouse at 0.5 mg/kg, iv measured upto 24 hrs by LC-MS/MS analysis. The data set is classed as ADME, organism-based. To be noted: in vivo.
Data set [16] can be described thus: Metabolic stability in rat hepatocytes assessed as intrinsic clearance at 1 uM measured per 10^6 cells incubated at 2 to 60 mins by LC-MS/MS analysis. The data set is classed as ADME, cell-based, Hepatocyte. Particulars: time 2-60 min, read-out: CLH.
Data set [17] is described as follows: Half life in Wistar Han rat at 0.5 mg/kg, iv measured upto 24 hrs by LC-MS/MS analysis. The data set is classed as ADME, organism-based. Particulars: in vivo.
Data set [18] is described as follows: Half life in C57/BI mouse at 2 mg/kg, iv measured upto 24 hrs by LC-MS/MS analysis. The class given is ADME, organism-based. Particulars: in vivo.
Data set [19] in a line: Half life in C57/BI mouse at 10 mg/kg, po measured upto 24 hrs by LC-MS/MS analysis. The class given is ADME, organism-based. Particulars: in vivo.
Data set [20] is described as follows: Volume of distribution at steady state in C57/BI mouse at 10 mg/kg, po or 2 mg/kg, iv measured upto 24 hrs by LC-MS/MS analysis. The class given is ADME, organism-based. To be noted: in vivo.

Chain of cAMP and cAMP-inhibited cGMP 3',5'-cyclic phosphodiesterase 10A (Homo sapiens) (Q9Y233 whole entry): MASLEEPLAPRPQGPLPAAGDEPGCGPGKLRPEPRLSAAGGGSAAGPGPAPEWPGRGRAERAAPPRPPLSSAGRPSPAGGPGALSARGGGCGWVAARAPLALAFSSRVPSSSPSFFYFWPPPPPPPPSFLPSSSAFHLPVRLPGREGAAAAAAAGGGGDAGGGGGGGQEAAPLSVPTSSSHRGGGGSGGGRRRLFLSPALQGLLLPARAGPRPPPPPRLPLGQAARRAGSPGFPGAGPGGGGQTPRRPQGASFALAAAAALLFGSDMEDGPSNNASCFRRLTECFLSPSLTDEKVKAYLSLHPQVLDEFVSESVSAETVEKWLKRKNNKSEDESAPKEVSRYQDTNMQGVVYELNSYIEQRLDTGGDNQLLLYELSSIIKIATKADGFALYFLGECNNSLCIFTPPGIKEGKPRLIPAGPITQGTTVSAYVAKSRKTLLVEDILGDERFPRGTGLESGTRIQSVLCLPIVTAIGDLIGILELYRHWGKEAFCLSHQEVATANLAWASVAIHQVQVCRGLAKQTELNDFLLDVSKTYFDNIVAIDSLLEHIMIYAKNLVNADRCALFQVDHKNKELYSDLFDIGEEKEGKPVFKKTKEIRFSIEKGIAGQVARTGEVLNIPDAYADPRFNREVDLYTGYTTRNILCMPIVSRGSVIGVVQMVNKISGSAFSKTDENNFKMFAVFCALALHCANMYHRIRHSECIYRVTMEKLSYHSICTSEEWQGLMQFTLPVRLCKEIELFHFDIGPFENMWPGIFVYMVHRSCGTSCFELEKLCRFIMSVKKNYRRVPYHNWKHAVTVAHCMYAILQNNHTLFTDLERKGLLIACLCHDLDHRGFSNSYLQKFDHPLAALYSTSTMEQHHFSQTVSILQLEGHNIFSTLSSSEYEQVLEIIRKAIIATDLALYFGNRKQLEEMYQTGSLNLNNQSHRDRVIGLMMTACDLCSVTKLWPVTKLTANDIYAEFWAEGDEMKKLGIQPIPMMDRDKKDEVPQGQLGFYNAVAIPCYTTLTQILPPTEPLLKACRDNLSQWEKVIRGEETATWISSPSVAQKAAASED

`CS(=O)(=O)NCC(Nc1ncc(-c2nnc(C(F)F)o2)cn1)c1ccc(OC(F)(F)F)cc1` (centres undefined): the concentration for half-maximal inhibition (IC50) in [1] is over 100 µM. For the same molecule, the half-life was 7.2 h in data set [2], 221 h in data set [3] and 11.8 h in [4].
Consider `FC(F)c1nnc(-c2ccc(Cn3nnc(-c4ccccn4)n3)nc2)o1`, for which the fraction unbound in data set [5] worked out at 0.13. For the same molecule, the IC50 was 1 µM in data set [6] and over 100 µM in data set [1]. In data set [7], the AUC(0-inf) came to 21 µM·h. Moreover, the half-life in data set [2] is under 13.7 h; in data set [13] it was 4.7 h; in [3], 84 h; in data set [4], 7.68 h; in [17] it was 7.3 h. Besides, in data set [8], the bioavailability was determined as 110%. In addition, the hepatocyte CLint at 1 µM in data set [9], in data set [10] and in data set [16] was under 1 µL/min/1e6 cells throughout. For the same molecule, the inhibition result in [11] is “Active”. In addition, the clearance is 3.2 mL/min/kg in [12] and 2.4 mL/min/kg in data set [15]. The molecule also gave a Vdss in data set [14] of 1.8 L/kg.
As to `COc1ccccc1-c1nnn(Cc2ccc(-c3nnc(C(F)F)o3)cn2)n1`, in [1], the IC50 is over 100 µM.
For `O=C(NO)c1cnc(NC2(c3ccccc3)CCC(F)(F)CC2)nc1`, the fraction unbound in data set [5] was found to be 0.23. The 50% inhibitory concentration (IC50) in [6] was 0.398 µM; in data set [1], 18 µM. For the same molecule, the hepatocyte CLint at 1 µM in data set [9] was determined as 130 µL/min/1e6 cells; in data set [10], 5.1 µL/min/1e6 cells; in [16], 51 µL/min/1e6 cells. The half-life was 0.2 h in data set [18], 1.7 h in [19] and 0.3 h in [17]. Besides, in [12], the clearance is 180 mL/min/kg. Further, the Vdss in data set [20] was 1.6 L/kg; in data set [14], 2.2 L/kg.
